# Legend:
# Caco-2 barrier model = test: Permeability in Caco-2 barrier model; conditions: for Papp, B-A direction: compound alone
# Procedure: (§1) Digoxin was used as marker to check for Pgp activity in the cultures. […] Samples were recovered from receptor compartments after 0, 15, 30, 45, 60, and 120 minutes, and further analyzed by liquid scintillation counting. Samples were also recovered a time 0 and 120 minutes from the donor compartments for mass balance evaluation. Each condition was performed in 3 replicated transwell filters in the presence of the Caco-2 barrier.
# [1] = human, in vivo
# urinary copper excretion = conditions: in vivo
# Pgp = Pgp (Homo sapiens, UniProt P08183); conditions: Caco-2
# [2] = in-life phase, albino and pigmented rats, 10 mg/kg oral
# [3] = Permeability in Caco-2 barrier model; conditions: human, Caco-2, pH 7.4
# Procedure: as §1
# Pgp, sequence (P08183 whole entry): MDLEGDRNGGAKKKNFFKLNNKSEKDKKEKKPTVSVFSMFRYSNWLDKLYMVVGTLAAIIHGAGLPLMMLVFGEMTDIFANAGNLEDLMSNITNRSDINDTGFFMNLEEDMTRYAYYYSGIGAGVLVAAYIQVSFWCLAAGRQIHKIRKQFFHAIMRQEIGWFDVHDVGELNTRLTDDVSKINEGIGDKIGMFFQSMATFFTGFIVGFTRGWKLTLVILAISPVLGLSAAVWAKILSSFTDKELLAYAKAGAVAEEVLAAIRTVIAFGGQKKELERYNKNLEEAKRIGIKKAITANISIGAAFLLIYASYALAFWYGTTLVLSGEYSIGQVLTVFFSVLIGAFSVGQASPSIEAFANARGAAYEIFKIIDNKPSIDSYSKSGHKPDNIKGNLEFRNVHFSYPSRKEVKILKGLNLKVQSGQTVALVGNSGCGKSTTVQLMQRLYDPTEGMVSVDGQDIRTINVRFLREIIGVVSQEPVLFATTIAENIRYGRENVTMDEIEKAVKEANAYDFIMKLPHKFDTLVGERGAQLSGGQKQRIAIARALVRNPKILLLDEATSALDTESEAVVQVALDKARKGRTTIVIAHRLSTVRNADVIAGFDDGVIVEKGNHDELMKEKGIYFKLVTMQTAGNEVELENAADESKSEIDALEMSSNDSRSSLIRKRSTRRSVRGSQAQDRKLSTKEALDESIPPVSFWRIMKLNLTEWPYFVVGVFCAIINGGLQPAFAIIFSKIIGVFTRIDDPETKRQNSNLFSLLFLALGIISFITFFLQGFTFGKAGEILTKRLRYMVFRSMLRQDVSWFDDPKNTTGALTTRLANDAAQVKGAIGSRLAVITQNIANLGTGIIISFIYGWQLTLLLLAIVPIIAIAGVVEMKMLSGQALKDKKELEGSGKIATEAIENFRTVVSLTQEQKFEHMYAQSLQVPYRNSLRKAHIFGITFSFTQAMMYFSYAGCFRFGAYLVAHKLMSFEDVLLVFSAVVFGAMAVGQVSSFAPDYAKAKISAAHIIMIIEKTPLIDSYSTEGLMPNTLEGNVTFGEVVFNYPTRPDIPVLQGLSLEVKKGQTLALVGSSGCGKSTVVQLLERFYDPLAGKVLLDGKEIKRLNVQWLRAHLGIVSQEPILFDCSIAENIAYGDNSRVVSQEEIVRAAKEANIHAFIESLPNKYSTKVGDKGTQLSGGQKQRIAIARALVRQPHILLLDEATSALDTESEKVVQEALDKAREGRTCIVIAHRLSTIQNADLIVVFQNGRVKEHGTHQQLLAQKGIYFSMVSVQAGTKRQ
compound,measurement,setting,value
"NCCNCCNCCN.O=C(O)CCC(=O)O.O=C(O)CCC(=O)O [PX811019, triethylenetetramine disuccinate]","Papp, B-A direction",Caco-2 barrier model; disuccinate,No permeability was observed
same,Predicted absorption in humans,Caco-2 barrier model; estimated from in vitro Papp value,approximately 70%
same,MAT t½,[1]; po,15.8239 h
same,Difference in urinary excretion of copper due to formulation,urinary copper excretion,no clear difference
same,Level of cupriuresis versus dose,urinary copper excretion; po,approximately the same at 435 and 1305 mg PX811019 and increased at the highest dose of 2175 mg
same,DAT t½ Predicted,"human, in vivo, po",0.390 h
same,Pgp substrate,Pgp,would not be a Pgp substrate
"NCCNCCNCCN [TETA, Triethylenetetramine, reference compound]","Increase of VT,T/F for every 100 mg difference from the 750 mg dose","human, in vivo",6.37%
same,Inter-occasion variability of F,"human, in vivo",43.7 (17.3) [5.5] %
same,Inter-occasion variability of ka,"human, in vivo",69.4 (57.6) [16.3] %
same,Slope (SL) of copper excretion versus TETA concentration,in vivo,41.8 (mg/L)^−1
same,θ-SL · ER0 Slope between TETA and Cu excretion rate,population mean,24.3 (mg/L)^−1 · (μg/h)
"CC(=O)NCCNCCNCCN [MAT, N1-acetyltriethylenetetramine]",θ-MTT Mean transit time for MAT formation,"human, in vivo",0.381 h
same,"θ-VP,M/F/frM Apparent volume for MAT","human, in vivo",426 L
NCCNCCNCCN.O=C(O)CCC(=O)O.O=C(O)CCC(=O)O,Animal observations attributable to administration,[2],No animal observations
"CC(=O)NCCNCCNCCNC(C)=O [DAT, N1,N10-diacetyltriethylenetetramine]",Median Tmax of DAT,[1],5.0 to 6.0 h
same,"θ-VP,D/F/frM/frD Apparent volume for DAT","human, in vivo",197 L
C[C@H]1O[C@@H](O[C@H]2[C@@H](O)C[C@H](O[C@H]3[C@@H](O)C[C@H](O[C@H]4CC[C@@]5(C)[C@H](CC[C@@H]6[C@@H]5C[C@@H](O)[C@]5(C)[C@@H](C7=CC(=O)OC7)CC[C@]65O)C4)O[C@@H]3C)O[C@@H]2C)C[C@H](O)[C@@H]1O [Digoxin],"Papp A→B at 1 h, 0.02 mM",[3],0.75 ×10⁻⁶ cm/s
same,Asymmetry Index,Caco-2 barrier model; B-A/A-B,8.06
same,"Papp, B-A direction",Caco-2 barrier model,6.08 ×10⁻⁶ cm/s
Lucifer yellow,Papp of barrier quality markers,Caco-2 barrier model; Caco-2,lower than 1×10^−6 cm/s

# — patent publication US20250114312A1, “TREATMENT OF COPPER DISORDERS” (PhilERA New Zealand Ltd., priority 2021, published 2025)
